In brackets after ≈: the same amount, converted by molar mass. Activity calls are given as the source filed them. The calls are words filed in the database; no cut-off is given here.
Tests used:
[1] = system: Candida albicans; assay: Antifungal activity against Candida albicans ATCC 24433 overexpressing transporter protein F5 assessed as inhibition of fungal growth by broth microdilution method; type: functional
[2] = system: Candida albicans; assay: Synergistic antifungal activity against Candida albicans ATCC 24433 assessed as inhibition of fungal growth incubated for 48 hrs in presence of SDS by checker board assay; type: functional
[3] = system: Candida; assay: Downregulation of PRS5 gene expression in Candida cells; type: functional, cell-based
[4] = system: Candida; assay: Downregulation of BMT4 gene expression in Candida cells; type: functional, cell-based
[5] = system: Candida; assay: Downregulation of CMP1 gene expression in Candida cells; type: functional, cell-based
[6] = system: Candida albicans; assay: Synergistic antifungal activity against wild type Candida albicans SN152 assessed as inhibition of fungal growth incubated for 48 hrs in presence of Amphotericin B by checker board assay; type: functional
[7] = system: Candida albicans; assay: Induction of ROS generation in Candida albicans ATCC 24433 at sub-inhibitory concentration incubated for 1 hr by DCFDA staining-based flow cytometric analysis; type: functional, organism-based
[8] = system: Candida albicans; assay: Synergistic antifungal activity against Candida albicans SN152 harboring CAS5 mutant assessed as Caspofungin MIC incubated for 48 hrs by checker board assay; type: functional
[9] = system: Candida albicans; assay: Synergistic antifungal activity against Candida albicans SN152 harboring CAS5 mutant assessed as fractional inhibitory concentration index incubated for 48 hrs in presence of Amphotericin B by checker board assay; type: functional
[10] = system: Candida parapsilosis; assay: Synergistic antifungal activity against Candida parapsilosis ATCC 90018 assessed as SDS MIC incubated for 48 hrs by checker board assay; type: functional; details: Lodderomyces parapsilosis
[11] = system: Cell membrane; assay: Disruption of membrane integrity in Candida auris CBS10913 assessed as cell surface perturbations measured after 3 hrs by SEM analysis; type: subcellular; details: Candidozyma auris
[12] = system: Candida albicans; assay: Downregulation of CAS5 gene expression in Candida albicans ATCC 24433 by qRT-PCR analysis; type: functional
[13] = system: Candida albicans; assay: Synergistic antifungal activity against Candida albicans ATCC 24433 assessed as fractional inhibitory concentration index incubated for 48 hrs in presence of Congo red by checker board assay; type: functional
[14] = system: Candida albicans; assay: Synergistic antifungal activity against Candida albicans SN152 harboring CAS5 mutant assessed as fractional inhibitory concentration index incubated for 48 hrs in presence of Caspofungin by checker board assay; type: functional
[15] = system: Candida albicans; assay: Synergistic antifungal activity against Candida albicans ATCC 24433 assessed as fractional inhibitory concentration index incubated for 48 hrs in presence of Calcoflour White by checker board assay; type: functional
[16] = system: Candida; assay: Downregulation of STT4 gene expression in Candida cells; type: functional, cell-based
[17] = system: Nakaseomyces glabratus; assay: Antifungal activity against Candida glabrata ATCC 2001 assessed as inhibition of fungal growth by broth microdilution method; type: functional
[18] = system: Candida; assay: Downregulation of RLM1 gene expression in Candida cells; type: functional, cell-based
[19] = system: Candida albicans; assay: Fungicidal activity against Candida albicans ATCC 24433 assessed as reduction in fungal growth by measuring reduction in colony count at sub-MIC concentration measured after 48 hrs by time kill assay; type: functional, organism-based
[20] = system: [Candida] auris; assay: Synergistic antifungal activity against Candida auris CBS10913 assessed as fractional inhibitory concentration index incubated for 48 hrs in presence of SDS by checker board assay; type: functional, Candidozyma auris
[21] = system: Candida; assay: Downregulation of ACF2 gene expression in Candida cells; type: functional, cell-based
[22] = system: Candida albicans; assay: Synergistic antifungal activity against Candida albicans SN152 harboring CAS5 mutant assessed as fluconazole MIC incubated for 48 hrs by checker board assay; type: functional
[23] = system: [Candida] auris; assay: Synergistic antifungal activity against Candida auris CBS10913 assessed as Congo red MIC incubated for 48 hrs by checker board assay; type: functional; details: Candidozyma auris
[24] = system: Candida albicans; assay: Synergistic antifungal activity against Candida albicans SN152 harboring CAS5 mutant assessed as fractional inhibitory concentration index incubated for 48 hrs in presence of fluconazole by checker board assay; type: functional
[25] = system: Candida; assay: Upregulation of ARG5 gene expression in Candida cells; type: functional, cell-based
[26] = system: [Candida] auris; assay: Antifungal activity against Candida auris 105 assessed as inhibition of fungal growth by broth microdilution method; type: functional; details: Candidozyma auris
[27] = system: Candida albicans; assay: Upregulation of NAG4 gene expression in Candida albicans ATCC 24433 by qRT-PCR analysis; type: functional
[28] = system: Candida albicans; assay: Synergistic antifungal activity against Candida albicans SN152 harboring CAS5 mutant assessed as inhibition of fungal growth incubated for 48 hrs in presence of fluconazole by checker board assay; type: functional
[29] = system: Candida; assay: Downregulation of CDC4 gene expression in Candida cells; type: functional, cell-based
[30] = system: Candida albicans; assay: Synergistic antifungal activity against Candida albicans ATCC 24433 assessed as Congo red MIC incubated for 48 hrs by checker board assay; type: functional
[31] = system: Candida; assay: Downregulation of GUT1 gene expression in Candida cells; type: functional, cell-based
[32] = system: Candida; assay: Upregulation of HYM1 gene expression in Candida cells; type: functional, cell-based
[33] = system: Candida; assay: Downregulation of CCW14 gene expression in Candida cells; type: functional, cell-based
[34] = system: Candida; assay: Downregulation of PGA10 gene expression in Candida cells; type: functional, cell-based
[35] = system: [Candida] auris; assay: Antifungal activity against Candida auris 102 assessed as inhibition of fungal growth by broth microdilution method; type: functional; details: Candidozyma auris
[36] = system: Candida albicans; assay: Synergistic antifungal activity against Candida albicans SN152 harboring CAS5 mutant assessed as Amphotericin B MIC incubated for 48 hrs by checker board assay; type: functional
[37] = system: [Candida] auris; assay: Induction of ROS generation in Candida auris CBS10913 at sub-inhibitory concentration incubated for 1 hr by DCFDA staining-based flow cytometric analysis; type: functional, organism-based; details: Candidozyma auris
[38] = system: Candida albicans; assay: Inhibition of drug efflux in Candida albicans ATCC 24433 overexpressing ADPDR5-GFP assessed as reduction in rhodamine 6g efflux preincubated for 45 mins followed by substrate addition and measured after 30 mins; type: functional; details: dose 0.1-100 µg/ml, time 75.0 min, DDE = dose-dependent effect
[39] = system: Candida albicans; assay: Downregulation of ZCF19 gene expression in Candida albicans ATCC 24433 by qRT-PCR analysis; type: functional
[40] = system: [Candida] auris; assay: Synergistic antifungal activity against Candida auris CBS10913 assessed as fractional inhibitory concentration index incubated for 48 hrs in presence of Calcoflour White by checker board assay; type: functional, Candidozyma auris
[41] = system: Candidozyma auris; assay: Upregulation of CaPHO15 gene expression in Candida auris CBS10913 assessed as increase in glycerol content at sub-inhibitory concentration incubated for 2 hrs; type: functional
[42] = system: Candida; assay: Downregulation of CLN3 gene expression in Candida cells; type: functional, cell-based
[43] = system: Candida albicans; assay: Synergistic antifungal activity against wild type Candida albicans SN152 assessed as inhibition of fungal growth incubated for 48 hrs in presence of fluconazole by checker board assay; type: functional
[44] = system: [Candida] auris; assay: Synergistic antifungal activity against Candida auris CBS10913 assessed as Calcoflour White MIC incubated for 48 hrs by checker board assay; type: functional; details: Candidozyma auris
[45] = system: Candida albicans; assay: Antifungal activity against Candida albicans ATCC 24433 overexpressing ADPDR5-GFP assessed as inhibition of fungal growth by broth microdilution method; type: functional
[46] = system: Candida; assay: Upregulation of LSC2 gene expression in Candida cells; type: functional, cell-based
[47] = system: Candida albicans; assay: Upregulation of CaPHO15 gene expression in Candida albicans ATCC 24433 assessed as increase in glycerol content at sub-inhibitory concentration incubated for 2 hrs; type: functional
[48] = system: Candida albicans; assay: Synergistic antifungal activity against Candida albicans ATCC 24433 assessed as Calcoflour White MIC incubated for 48 hrs by checker board assay; type: functional
[49] = system: Candida albicans; assay: Downregulation of ATO5 gene expression in Candida albicans ATCC 24433 by qRT-PCR analysis; type: functional

For `O=[N+]([O-])/C=C/c1ccc(O)cc1`, the MIC80 [1] was 2 µg/mL (≈ 12.1 µM), the MIC [2] was 1 µg/mL and the Activity [3] was “Active”. For the same compound, the Activity [4] was “Active”, the Activity [5] was “Active” and the MIC [6] was 0.0625 µg/mL. The Activity [7] was “Active”, the MIC [8] was 0.0078 µg/mL and the “fractional inhibitory concentration index (FICI)” value [9] was 0.515. The MIC [10] was 25 µg/mL, the Activity [11] was “Active” and the Activity [12] was “Active”. For the same compound, the “fractional inhibitory concentration index (FICI)” value [13] was 0.375, the “fractional inhibitory concentration index (FICI)” value [14] was 0.5 and the “fractional inhibitory concentration index (FICI)” value [15] was 0.25. For the same compound, the Activity [16] was “Active”, the MIC80 [17] was 8 µg/mL (≈ 48.4 µM) and the Activity [18] was “Active”. For the same compound, the Activity [19] was “Active”, the “fractional inhibitory concentration index (FICI)” value [20] was 0.5 and the Activity [21] was “Active”. The MIC [22] was 0.125 µg/mL, the MIC [23] was 100 µg/mL and the “fractional inhibitory concentration index (FICI)” value [24] was 0.126. The Activity [25] was “Active”, the MIC80 [26] was 2 µg/mL (≈ 12.1 µM) and the Activity [27] was “Active”. The MIC [28] was 0.001 µg/mL, the Activity [29] was “Active” and the MIC [30] was 3.12 µg/mL. For the same compound, the Activity [31] was “Active”, the Activity [32] was “Active” and the Activity [33] was “Active”. For the same compound, the Activity [34] was “Active”, the MIC80 [35] was 4 µg/mL (≈ 24.2 µM) and the MIC [36] was 0.25 µg/mL. The Activity [37] was “Active”, the inhibition [38] was “Dde” and the Activity [39] was “Active”. For the same compound, the “fractional inhibitory concentration index (FICI)” value [40] was 0.625, the Activity [41] was “Active” and the Activity [42] was “Active”. It also gave an MIC [43] of 0.0039 µg/mL, an MIC [44] of 25 µg/mL and an MIC80 [45] of 4 µg/mL (≈ 24.2 µM). For the same compound, the Activity [46] was “Active”, the Activity [47] was “Active” and the MIC [48] was 12.5 µg/mL. For the same compound, the Activity [49] was “Active”.
